In one data set the test system is Staphylococcus aureus. The data set is described as follows: Antibacterial activity against wild type Staphylococcus aureus USA300 assessed as inhibition of bacterial growth incubated for 18 hrs. The data set is classed as functional. To be noted: read-out: MIC100.
Data set [1] relates to Escherichia coli. The data set is described as follows: Antibacterial activity against Escherichia coli Swiss 9 harboring mcr-1 gene assessed as inhibition of bacterial growth incubated for 18 hrs. The data set is classed as functional. To be noted: read-out: MIC100.
A short description of data set [2]: Drug localization in membrane fraction of Escherichia coli ATCC 25922 at 10 uM incubated for 10 mins by LC-MS/MS analysis. In kind it is ADME, cell membranes.
Data set [3] in a line: Lipophilicity, logD of compound at pH 7.4. To be noted: buffer. The data set is classed as physicochemical.
Data set [4] concerns Escherichia coli. The data set is described as follows: Antibacterial activity against colistin resistant Escherichia coli NCTC 13846 harboring mcr-1 gene assessed as inhibition of bacterial growth incubated for 18 hrs. The data set is classed as functional. The following applies: read-out: MIC100.
Data set [5] in a line: Aqueous solubility of compound at pH 4.6. In kind it is physicochemical.
A short description of data set [6]: Aqueous solubility of compound at pH 7.4. The data set is classed as physicochemical.
Data set [7] deals with Cell membrane. The data set is described as follows: Induction of membrane permeabilization in Klebsiella pneumoniae ATCC 13883 at 4 to 10 ug/ml measured after 30 mins by Sytox Green labelling based microscopic analysis. In kind it is cell membranes. The following applies: dose 4-10 µg/ml.
Another data set deals with Klebsiella pneumoniae. The data set is described as follows: Antibacterial activity against wild-type Klebsiella pneumoniae ATCC 13883 assessed as inhibition of bacterial growth incubated for 18 hrs. The data set is classed as functional. The following applies: read-out: MIC100.
Data set [8] can be described thus: Drug uptake in Acinetobacter baumannii ATCC 19606 whole cells assessed as log10 increase in drug accumulation at 10 uM incubated for 10 mins by LC-MS/MS analysis relative to H-(D-Val)-(D-Dab)-Gly-(D-Ser)-(D-Trp)-Ser-Dab-(D-Dab)-Phe-Glu-Val-(D-allo-Ile)-Ala-OH. The data set is classed as ADME.
The subject of data set [9] is Escherichia coli. The data set is described as follows: Antibacterial activity against Escherichia coli ATCC BAA-2469 expressing NDM-1 assessed as inhibition of bacterial growth incubated for 18 hrs. The data set is classed as functional. To be noted: read-out: MIC100.
For data set [10], the system named is Cell membrane. The data set is described as follows: Induction of membrane permeabilization in Escherichia coli ATCC 25922 at 4 to 10 ug/ml measured after 30 mins by Sytox Green labelling based microscopic analysis. The following applies: dose 4-10 µg/ml. The data set is classed as cell membranes.
In data set [11] the test system is Escherichia coli. The data set is described as follows: Antibacterial activity against Escherichia coli Swiss 7 harboring mcr-1 gene assessed as inhibition of bacterial growth incubated for 18 hrs. The data set is classed as functional. The following applies: read-out: MIC100.
Another data set has as its system Morganella morganii. The data set is described as follows: Antibacterial activity against Morganella morganii ATCC 25830 assessed as inhibition of bacterial growth incubated for 18 hrs. In kind it is functional. To be noted: read-out: MIC100.
The subject of a further data set is Proteus mirabilis. The data set is described as follows: Antibacterial activity against Proteus mirabilis ATCC 7002 assessed as inhibition of bacterial growth incubated for 18 hrs. In kind it is functional. The following applies: read-out: MIC100.
Data set [12] has as its system Escherichia coli. The data set is described as follows: Antibacterial activity against wild-type Escherichia coli ATCC 25922 assessed as inhibition of bacterial growth incubated for 18 hrs. In kind it is functional. The following applies: read-out: MIC100.
A short description of data set [13]: Drug uptake in Pseudomonas aeruginosa PAO1 whole cells assessed as log10 increase in drug accumulation at 10 uM incubated for 10 mins by LC-MS/MS analysis relative to H-(D-Val)-(D-Dab)-Gly-(D-Ser)-(D-Trp)-Ser-Dab-(D-Dab)-Phe-Glu-Val-(D-allo-Ile)-Ala-OH. In kind it is ADME.
In the next data set the test system is Pseudomonas aeruginosa. The data set is described as follows: Antibacterial activity against efflux-deficient Pseudomonas aeruginosa PAO750 assessed as inhibition of bacterial growth incubated for 18 hrs. The data set is classed as functional. The following applies: read-out: MIC100.
The nature of data set [14]: Drug uptake in Escherichia coli ATCC 25922 assessed as fold increase in cellular drug concentration at 10 uM incubated for 10 mins by LC-MS/MS analysis. In kind it is ADME.
Data set [15] is described as follows: Drug uptake in Proteus mirabilis ATCC 7002 whole cells at 10 uM incubated for 10 mins by LC-MS/MS analysis. The data set is classed as ADME.
Data set [16] is described as follows: Toxicity in naive mouse assessed as drug tolerance at 20 mg/kg, sc administered as single dose every 4 hrs for 24 hrs. The data set is classed as organism-based. The following applies: in vivo.

Values after ≈ are worked out from the molar mass of the structure shown. Active and inactive are the calls of the source. The rule behind the calls is not given here.

The values below come from ChEMBL document CHEMBL5518181, “Studies of antibacterial activity (in vitro and in vivo) and mode of action for des-acyl tridecaptins (DATs)” (Eur J Med Chem, 2024).

With `CCCCCCCC(=O)N[C@@H](C(=O)N[C@H](CCN)C(=O)NCC(=O)N[C@H](CO)C(=O)N[C@H](Cc1c[nH]c2ccccc12)C(=O)N[C@@H](CO)C(=O)N[C@@H](CCN)C(=O)N[C@H](CCN)C(=O)N[C@@H](Cc1ccccc1)C(=O)N[C@@H](CCC(=O)O)C(=O)N[C@H](C(=O)N[C@@H](C(=O)N[C@@H](C)C(=O)O)[C@@H](C)CC)C(C)C)C(C)C`, the MIC stood at 32 µg/mL (≈ 21 µM) in the data set with Staphylococcus aureus; 0.5 µg/mL (≈ 0.329 µM) in the data set on Escherichia coli [1]; 1 µg/mL (≈ 0.658 µM) with Escherichia coli [4]; 4 µg/mL (≈ 2.63 µM) in the data set on Klebsiella pneumoniae; 1 µg/mL (≈ 0.658 µM) in the data set on Escherichia coli [9]; 1 µg/mL (≈ 0.658 µM) with Escherichia coli [11]. Besides, the MIC in the data set on Morganella morganii was more than 32 µg/mL; in the data set on Proteus mirabilis, 32 µg/mL (≈ 21 µM); with Escherichia coli [12], 2 µg/mL (≈ 1.32 µM); in the data set on Pseudomonas aeruginosa, more than 32 µg/mL. Besides, the Drug uptake result in data set [2] and in data set [15] was “Active” each time. Also, the logD (usually lipophilicity at a set pH, counting ionised and neutral species) in data set [3] was 2.24. Moreover, the solubility (in general, how much of the substance goes into solution per volume) in data set [5] was 88 mg/mL (≈ 57900 µM); in [6] it was 30 mg/mL (≈ 19700 µM). For the same compound, the result in the data set with Cell membrane [7] and in the data set on Cell membrane [10] was Active. In addition, the “log(activity)” value in data set [8] and in data set [13] was 2 throughout. In [14], the “fold change (FC)” value came to 30.
On to COLISTIN, for which the Activity entry in data set [16] is “Non-Toxic”.
